Measurements taken from patent US20250082931A1, “Treating Gastric Cancer Using TTFields Combined with XELOX, FOLFOX or the Individual Constituents Thereof” (Novocure GmbH, priority 2019, published 2025).

Key:
AGS cells = test: Apoptosis analysis by Annexin V / 7AAD staining; assay type: cell-based; conditions: for AnnV+ 7AAD+ cell fraction / AnnV+ 7AAD− cell fraction / AnnV− 7AAD+ cell fraction / AnnV− 7AAD− cell fraction: 72 h
Description: After 72 h of treatment the media and the cells were collected, and cytotoxicity was determined by cell counts. Cells (including cells from the media) were stained for Annexin V and 7AAD for apoptosis analysis. For the testing of the clonogenic effect, cells were seeded for colonies.
Cells were seeded on inovitro dishes and petri dishes 24 h before starting the experiments. Media containing the indicated concentration of each chemotherapy component alone or FOLFOX and control media was added to the cells and the dishes were connected to TTFields (as in SOP-BI-009) or grown in 37° C., 5% CO2 for 72 h. Each treatment included 8 repeats (8 dishes). The media was replaced every 24 h. At the end of the experiment the cells were collected, and cytotoxicity was determined by cell counts, small number of cells were seeded for colonies and the cells (including cells from the media) were stained for Annexin V and 7AAD for apoptosis analysis.
Apoptotic effect: Average of cell fraction of each marker staining (Annexin V and 7AAD) of at least 5 dishes from each treatment was calculated in Excel software. The averages from these repeats was calculated to averages and is presented in stacked bar graph using GraphPed software.

KATO III cells [1] = test: Clonogenic effect (colonies count); conditions: for colonies count: 72 h;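 as to all read-outs here: after treatment, KATO III cells were reseeded and grown 6–14 days, then colonies were fixed, stained and counted, expressed as percent of untreated (no drug) control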
Description: After 72 h of treatment the media and the cells were collected, and cytotoxicity was determined by cell counts. […] For the testing of the clonogenic effect, cells were seeded for colonies.
(§1) After 6-14 days the colonies were fixed, stained and counted to determine clonogenic effect. The overall effect was calculated by multiplying the cytotoxic effect and the clonogenic effect.
Clonogenic effect: The colonies from each well were counted using ImageJ software. Average and standard deviation of colony number of at least 5 wells from each treatment were calculated in excel software. The averages from these repeats was calculated to averages and standard errors and is presented as percent from control (no drug treatment) in XY graph of points with error bars using GraphPed software. Significant was determine by 2-way ANOVA followed Multiple comparison using GraphPed software.

KATO III cells [2] = test: Overall effect (cytotoxic effect x clonogenic effect); conditions: 72 h
Description: as §1
Overall effect: Each colony number was multiply in the percent of cytotoxic effect of its dish and averages and standard deviations of each treatment were calculated in Excel software. […] Significant was determine by 2-way ANOVA followed Multiple comparison using GraphPed software.

KATO III cells [3] = test: Apoptosis analysis by Annexin V / 7AAD staining; assay type: cell-based; conditions: for AnnV+ 7AAD+ cell fraction / AnnV+ 7AAD− cell fraction / AnnV− 7AAD+ cell fraction / AnnV− 7AAD− cell fraction: 72 h
[4] = 0.5 uM, + TTFields 150 kHz 1.0 V/cm
[5] = 1.5 uM, + TTFields 150 kHz 1.0 V/cm
[6] = 4.5 uM, + TTFields 150 kHz 1.0 V/cm
[7] = 13.5 uM, + TTFields 150 kHz 1.0 V/cm
[8] = FOLFOX experiment, 0.5 uM, + TTFields 150 kHz 1.0 V/cm
[9] = FOLFOX experiment, 0.5 uM, no TTFields
[10] = 1.5 uM, + TTFields 150 kHz 1.6 V/cm
[11] = 4.5 uM, + TTFields 150 kHz 1.6 V/cm
[12] = 13.5 uM, + TTFields 150 kHz 1.6 V/cm
[13] = 40 uM, + TTFields 150 kHz 1.6 V/cm
[14] = 1.5 nM, + TTFields 150 kHz 1.6 V/cm
[15] = 4.5 nM, + TTFields 150 kHz 1.6 V/cm

Q: Which “elevation in percent of cells that undergo apoptosis, drug + TTFields compared to drug alone” value (AGS cells) does the source give for O=c1[nH]cc(F)c(=O)[nH]1 [5-FU, 5-fluorouracil] here?
A: The value was “higher”.

Q: What about the “AnnV+ 7AAD+ cell fraction” value (AGS cells; [4]) of the same compound?
A: The value was 8.00%.

Q: And the “AnnV+ 7AAD− cell fraction” value (AGS cells; [4])?
A: The value was 6.38%.

Q: What about the “AnnV− 7AAD+ cell fraction” value (AGS cells; [4]) of the same compound?
A: Its value is 1.03%.

Q: What about the “AnnV− 7AAD− cell fraction” value (AGS cells; [4]) of the same compound?
A: The value was 84.58%.

Q: And the “AnnV+ 7AAD+ cell fraction” value (AGS cells; 0.5 uM, no TTFields)?
A: The value was 5.33%.

Q: And the “AnnV+ 7AAD− cell fraction” value (AGS cells; 0.5 uM, no TTFields)?
A: The value was 4.48%.

Q: What about the “AnnV− 7AAD+ cell fraction” value (AGS cells; 0.5 uM, no TTFields) of the same compound?
A: Its value is 1.40%.

Q: What about the “AnnV− 7AAD− cell fraction” value (AGS cells; 0.5 uM, no TTFields) of the same compound?
A: The value was 88.78%.

Q: And the “AnnV+ 7AAD+ cell fraction” value (AGS cells; [5])?
A: Its value is 9.05%.

Q: And the “AnnV+ 7AAD− cell fraction” value (AGS cells; [5])?
A: The value was 5.90%.

Q: And the “AnnV− 7AAD+ cell fraction” value (AGS cells; [5])?
A: The value was 1.28%.

Q: And the “AnnV− 7AAD− cell fraction” value (AGS cells; [5])?
A: The value was 83.80%.

Q: What about the “AnnV+ 7AAD+ cell fraction” value (AGS cells; 1.5 uM, no TTFields) of the same compound?
A: The value was 5.48%.

Q: What about the “AnnV+ 7AAD− cell fraction” value (AGS cells; 1.5 uM, no TTFields) of the same compound?
A: Its value is 5.03%.

Q: What about the “AnnV− 7AAD+ cell fraction” value (AGS cells; 1.5 uM, no TTFields) of the same compound?
A: Its value is 1.23%.

Q: And the “AnnV− 7AAD− cell fraction” value (AGS cells; 1.5 uM, no TTFields)?
A: Its value is 88.25%.

Q: What about the “AnnV+ 7AAD+ cell fraction” value (AGS cells; [6]) of the same compound?
A: Its value is 12.35%.

Q: What about the “AnnV+ 7AAD− cell fraction” value (AGS cells; [6]) of the same compound?
A: Its value is 6.78%.

Q: And the “AnnV− 7AAD+ cell fraction” value (AGS cells; [6])?
A: The value was 2.48%.

Q: What about the “AnnV− 7AAD− cell fraction” value (AGS cells; [6]) of the same compound?
A: The value was 78.43%.

Q: And the “AnnV+ 7AAD+ cell fraction” value (AGS cells; 4.5 uM, no TTFields)?
A: The value was 6.40%.

Q: And the “AnnV+ 7AAD− cell fraction” value (AGS cells; 4.5 uM, no TTFields)?
A: Its value is 5.08%.

Q: What about the “AnnV− 7AAD+ cell fraction” value (AGS cells; 4.5 uM, no TTFields) of the same compound?
A: The value was 1.25%.

Q: What about the “AnnV− 7AAD− cell fraction” value (AGS cells; 4.5 uM, no TTFields) of the same compound?
A: Its value is 87.28%.

Q: What about the “AnnV+ 7AAD+ cell fraction” value (AGS cells; [7]) of the same compound?
A: The value was 14.45%.

Q: What about the “AnnV+ 7AAD− cell fraction” value (AGS cells; [7]) of the same compound?
A: Its value is 8.70%.

Q: What about the “AnnV− 7AAD+ cell fraction” value (AGS cells; [7]) of the same compound?
A: Its value is 2.63%.

Q: What about the “AnnV− 7AAD− cell fraction” value (AGS cells; [7]) of the same compound?
A: The value was 74.20%.

Q: What about the “AnnV+ 7AAD+ cell fraction” value (AGS cells; 13.5 uM, no TTFields) of the same compound?
A: The value was 8.45%.

Q: What about the “AnnV+ 7AAD− cell fraction” value (AGS cells; 13.5 uM, no TTFields) of the same compound?
A: Its value is 6.20%.

Q: What about the “AnnV− 7AAD+ cell fraction” value (AGS cells; 13.5 uM, no TTFields) of the same compound?
A: The value was 0.90%.

Q: And the “AnnV− 7AAD− cell fraction” value (AGS cells; 13.5 uM, no TTFields)?
A: The value was 84.45%.

Q: And the “AnnV+ 7AAD+ cell fraction” value (AGS cells; [8])?
A: Its value is 10.3%.

Q: And the “AnnV+ 7AAD− cell fraction” value (AGS cells; [8])?
A: The value was 7.3%.

Q: And the “AnnV− 7AAD+ cell fraction” value (AGS cells; [8])?
A: The value was 1.7%.

Q: And the “AnnV− 7AAD− cell fraction” value (AGS cells; [8])?
A: The value was 80.8%.

Q: And the “AnnV+ 7AAD+ cell fraction” value (AGS cells; [9])?
A: Its value is 4.3%.

Q: What about the “AnnV+ 7AAD− cell fraction” value (AGS cells; [9]) of the same compound?
A: Its value is 4.8%.

Q: And the “AnnV− 7AAD+ cell fraction” value (AGS cells; [9])?
A: Its value is 1.8%.

Q: And the “AnnV− 7AAD− cell fraction” value (AGS cells; [9])?
A: The value was 89.1%.

Q: What about the colonies count (KATO III cells [1]; [10]) of the same compound?
A: The colonies count was 50 % from control.

Q: And the colonies count (KATO III cells [1]; 1.5 uM, no TTFields)?
A: The colonies count was 83 % from control.

Q: What about the colonies count (KATO III cells [1]; [11]) of the same compound?
A: Its colonies count is 38 % from control.

Q: What about the colonies count (KATO III cells [1]; 4.5 uM, no TTFields) of the same compound?
A: Its colonies count is 55 % from control.

Q: And the colonies count (KATO III cells [1]; [12])?
A: Its colonies count is 8 % from control.

Q: What about the colonies count (KATO III cells [1]; 13.5 uM, no TTFields) of the same compound?
A: The colonies count was 9 % from control.

Q: What about the colonies count (KATO III cells [1]; [13]) of the same compound?
A: Its colonies count is 1 % from control.

Q: And the colonies count (KATO III cells [1]; 40 uM, no TTFields)?
A: The colonies count was 2 % from control.

Q: What about the “colonies number (clonogenic effect and overall effect), drug + TTFields compared to drug alone” value (KATO III cells [1]; Two-way ANOVA P<0.001) of the same compound?
A: Its value is “significant reduction in colonies number”.

Q: And the “overall effect (colonies count multiplying the cytotoxic effect)” value (KATO III cells [2]; [10])?
A: Its value is 24 % from control.

Q: And the “overall effect (colonies count multiplying the cytotoxic effect)” value (KATO III cells [2]; 1.5 uM, no TTFields)?
A: Its value is 58 % from control.

Q: And the “overall effect (colonies count multiplying the cytotoxic effect)” value (KATO III cells [2]; [11])?
A: Its value is 18 % from control.

Q: And the “overall effect (colonies count multiplying the cytotoxic effect)” value (KATO III cells [2]; 4.5 uM, no TTFields)?
A: The value was 34 % from control.

Q: And the “overall effect (colonies count multiplying the cytotoxic effect)” value (KATO III cells [2]; [12])?
A: Its value is 3 % from control.

Q: What about the “overall effect (colonies count multiplying the cytotoxic effect)” value (KATO III cells [2]; 13.5 uM, no TTFields) of the same compound?
A: The value was 4 % from control.

Q: What about the “overall effect (colonies count multiplying the cytotoxic effect)” value (KATO III cells [2]; [13]) of the same compound?
A: The value was 0 % from control.

Q: And the “overall effect (colonies count multiplying the cytotoxic effect)” value (KATO III cells [2]; 40 uM, no TTFields)?
A: Its value is 0 % from control.

Q: And the “elevation in percent of cells that undergo apoptosis, drug + TTFields compared to drug alone” value (KATO III cells [3])?
A: Its value is “higher”.

Q: What about the “AnnV+ 7AAD+ cell fraction” value (KATO III cells [3]; [14]) of the same compound?
A: Its value is 19.12%.

Q: And the “AnnV+ 7AAD− cell fraction” value (KATO III cells [3]; [14])?
A: The value was 17.49%.

Q: And the “AnnV− 7AAD+ cell fraction” value (KATO III cells [3]; [14])?
A: The value was 2.24%.

Q: What about the “AnnV− 7AAD− cell fraction” value (KATO III cells [3]; [14]) of the same compound?
A: Its value is 61.16%.

Q: And the “AnnV+ 7AAD+ cell fraction” value (KATO III cells [3]; 1.5 nM, no TTFields)?
A: The value was 11.98%.

Q: What about the “AnnV+ 7AAD− cell fraction” value (KATO III cells [3]; 1.5 nM, no TTFields) of the same compound?
A: Its value is 11.44%.

Q: And the “AnnV− 7AAD+ cell fraction” value (KATO III cells [3]; 1.5 nM, no TTFields)?
A: The value was 1.95%.

Q: What about the “AnnV− 7AAD− cell fraction” value (KATO III cells [3]; 1.5 nM, no TTFields) of the same compound?
A: The value was 74.64%.

Q: What about the “AnnV+ 7AAD+ cell fraction” value (KATO III cells [3]; [15]) of the same compound?
A: The value was 20.44%.

Q: What about the “AnnV+ 7AAD− cell fraction” value (KATO III cells [3]; [15]) of the same compound?
A: The value was 13.34%.

Q: And the “AnnV− 7AAD+ cell fraction” value (KATO III cells [3]; [15])?
A: Its value is 4.25%.

Q: What about the “AnnV− 7AAD− cell fraction” value (KATO III cells [3]; [15]) of the same compound?
A: Its value is 61.98%.

Q: What about the “AnnV+ 7AAD+ cell fraction” value (KATO III cells [3]; 4.5 nM, no TTFields) of the same compound?
A: The value was 11.92%.

Q: What about the “AnnV+ 7AAD− cell fraction” value (KATO III cells [3]; 4.5 nM, no TTFields) of the same compound?
A: The value was 11.00%.

Q: And the “AnnV− 7AAD+ cell fraction” value (KATO III cells [3]; 4.5 nM, no TTFields)?
A: The value was 3.59%.
